Key:
Cyclooxygenase = experiment: ARBC whole cell cyclooxygenase assay (PGF2α formation in RBL-1 cells); format: cell-based, rat; settings: A23187 (5 μM) stimulated, PGF2α formation by RIA
Protocol: (§1) A description of each procedure follows. ARBL/ARBC Whole Cell 5-Lipoxygenase and Cyclooxygenase Assays The rat basophilic leukemia cell line (RBL-1) was obtained from the American Type Culture Collection (Rockville, Md.). Radioimmunoassay (RIA) kits of LTB4 and PGF2α were obtained from Amersham (Arlington Heights, Ill.) and Seragen (Boston, Mass.), respectively. All tissue culture media were obtained from GIBCO (Grand Island, N.Y.). RBL-1 cells are grown in suspension culture in Eagle's minimum essential medium supplemented with 12% fetal bovine serum at 37° C. in an incubator supplied with air-5% carbon dioxide. Cells are harvested by centrifugation. They are washed with cold phosphate buffered saline pH 7.4 (PBS; NaCl, 7.1 g; NaHPO, 1.15 g; KHPO, 0.2 g; and KCl, 0.2 g/l). Cells are finally suspended in PBS containing 1.0 mM calcium at a density of […] cells/ml. Cells are incubated with and without test agent (in DMSO) (1% DMSO is without effect on arachidonic acid metabolism) for ten minutes at room temperature. Calcium ionophore A23187 (5 μM) is added and cells are incubated for seven minutes at 37° C. The reaction is stopped by chilling the tubes on ice for ten minutes. Cells are separated by centrifugation and the supernatant is stored at […]. Aliquots (100 μL) are analyzed for LTB4 and PGF2α using radioimmunoassay kits as provided by the supplier. Biochemical data obtained from this whole cell assay may be shown as IC50 s which are calculated as the amount of test compound causing 50% inhibition of LTB4 or PGF2α formation. The following Table exemplifies the data for the present invention.

5-Lipoxygenase = target: T1, 5-Lipoxygenase (Rattus norvegicus, UniProt P12527); experiment: ARBL whole cell 5-lipoxygenase assay (LTB4 formation in RBL-1 cells); format: cell-based; settings: A23187 (5 μM) stimulated, LTB4 formation by RIA, read-out: % Inhibition at 10 μM Conc, ARBL
T1 construct: host or cells: RBL-1 (rat basophilic leukemia)
T1 sequence (P12527 1-673): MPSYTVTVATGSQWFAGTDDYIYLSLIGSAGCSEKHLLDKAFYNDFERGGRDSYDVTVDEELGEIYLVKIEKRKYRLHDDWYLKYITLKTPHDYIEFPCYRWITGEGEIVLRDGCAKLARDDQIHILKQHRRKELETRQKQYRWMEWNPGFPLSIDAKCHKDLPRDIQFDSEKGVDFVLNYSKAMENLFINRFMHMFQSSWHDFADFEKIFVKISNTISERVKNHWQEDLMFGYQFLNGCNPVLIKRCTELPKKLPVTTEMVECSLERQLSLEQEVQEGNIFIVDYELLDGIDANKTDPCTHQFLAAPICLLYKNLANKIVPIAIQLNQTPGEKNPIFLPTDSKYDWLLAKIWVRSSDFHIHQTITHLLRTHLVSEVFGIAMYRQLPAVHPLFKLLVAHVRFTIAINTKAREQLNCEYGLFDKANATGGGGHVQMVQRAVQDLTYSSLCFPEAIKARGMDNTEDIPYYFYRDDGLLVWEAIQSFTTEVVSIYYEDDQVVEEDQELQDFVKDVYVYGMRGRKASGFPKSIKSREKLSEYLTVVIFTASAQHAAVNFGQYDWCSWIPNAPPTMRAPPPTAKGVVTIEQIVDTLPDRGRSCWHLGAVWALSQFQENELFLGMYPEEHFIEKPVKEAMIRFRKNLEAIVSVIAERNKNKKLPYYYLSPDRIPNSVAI
Protocol: as §1

SMILES	% Inhibition at 10 μM Conc, ARBC (Cyclooxygenase)	inhibition at 10 µM (5-Lipoxygenase)
CC(C)(C)c1nc(C=C2SC(=O)NC2=O)nc(C(C)(C)C)c1O [Example 8]	68%	60%
CON1CCC(=Cc2nc(C(C)(C)C)c(O)c(C(C)(C)C)n2)C1=O [Example 15, 3-[[4,6-Bis-(1,1-dimethylethyl)-5-hydroxy-2-pyrimidinyl]methylene]-N-methoxy-pyrrolidin-2-one]	88%	46%
CC(C)(C)c1nc(C=C2SC(=N)NC2=O)nc(C(C)(C)C)c1O [Example 7, 5-[[4,6-Bis-(1,1-dimethylethyl]-5-hydroxy-2-pyrimidinyl]methylene]-2-imino-4-thiazolidinone]	56%	32%
CC(C)(C)c1nc(C=C2SC(=S)NC2=O)nc(C(C)(C)C)c1O [Example 6, 5-[[4,6-Bis-(1,1-dimethylethyl)-5-hydroxy-2-pyrimidinyl]methylene]-2-thioxo-4-thiazolidinone]	81%	91%
CC(C)(C)c1nc(C=C2CCOC2=O)nc(C(C)(C)C)c1O [Example 16]	93%	100%

— patent US5270319A, “5-hydroxy-2-pyrimidinylmethylene derivatives useful as antiinflammatory agents” (Warner-Lambert Company, priority 1992, dated 1993)
